# Like-named read-outs stand apart in the source and are kept apart here.
# Columns and labels:
# [1] = tested on: LNCaP prostate tumor cells; test: LNCaP tumors in SCID mice: Compound #10 as monotherapy and with bicalutamide
# Description: (§1) Male C.B.17 SCID mice (Charles River Laboratory; Wilmington, Mass.) were inoculated with LNCaP prostate tumor cells (6.1×10^6 cells/mouse) obtained from the ATCC (Manassas, Va.). […] Mice were inoculated using a 25 gauge needle in the right flank in a volume of 0.2 mL. A total of 95 mice were injected, of which 32 were used.
# (§2) Twenty-seven days after inoculation, the mice were randomized into 4 groups as outlined in Table 33. […] Treatment started on Day 0 and continued through Day 30.
# (§3) Body Weight: One day prior to the initiation of the study, the mice were weighed. Thereafter, mice were weighed every week and on the day that the study was terminated.
# (§4) Tumor Size: Tumors were measured every 3 to 4 days using digital calipers. To calculate tumor volume, the following calculation was used, where L equals the longest dimension measurement and W equals the shortest dimension measurement:
# (§5) Tumor growth was calculated as: [1-[(final tumor size minus initial tumor size in test compound treated-mice)/(final tumor size minus initial tumor size in vehicle-treated mice)]×100%
# (§6) Percent change in body weight was calculated as: [(Body weight on Day of study)−(initial body weight)/(initial body weight)]×100%
# (§7) Differences in tumor size, tumor growth, and body weight change among groups were analyzed by ANOVA (analysis of variance) (SigmaStat 3.0).
# [2] = tested on: LNCaP prostate tumor cells; settings: mouse, in vivo, po, 25 mg/kg
# Description: as §1, §2, §3, §4, §5, §6, §7
# [3] = tested on: LNCaP prostate tumor cells; settings: mouse, in vivo, iv, 3 mg/kg
# Description: as §1
# (§8) Treatment started on Day 0 and continued through Day 31.
# as §3, §4
# (§9) Data Analysis: Tumor growth was calculated as: [1-[(final tumor size minus initial tumor size in test compound treated-mice)/(final tumor size minus initial tumor size in vehicle-treated mice)]×100%
# as §6, §7
# [4] = tested on: LNCaP prostate tumor cells; test: LNCaP tumors in SCID mice: Compound #10 as monotherapy and with docetaxel
# Description: as §1, §8, §3, §4, §9, §6, §7
# PC3 xenografts = test: PC3 tumors in mice: Compound #10 as monotherapy and with docetaxel
# Description: PC3 cells (CRL 1435) obtained from the American Type Tissue Collection (ATCC, Manassas, Va.) were thawed and seeded at 0.5×10^7 cells per 175 mm^2 flask. Cells were fed and expanded on a regular schedule to reach a given density prior to passage. Flasks were between 80-90% confluent, but not >95% confluent on the day of harvest. Harvest occurred ˜48 hr after the previous split to allow for full recovery.
# To harvest the cells, medium was removed from the flasks and the cell layers rinsed with 37° C. PBS. A volume of 3 mL trypsin-EDTA was added per 175 cm^2 surface area and incubated at room temperature for 5 minutes until the cells detached. The cells were collected in 7-10 mL ice cold complete medium and were transferred to a conical tube. The tube was placed immediately on ice. After all flasks were harvested, the cells were pelleted by centrifugation at 4° C. Cells were re-suspended at 2.5×10^7 cells/mL in Hank's Salt Solution and 10 mM HEPES. Cells were stored on ice until the time of tumor inoculation (which was less than 1 h later).
# Tumor Cell Injection: Tumor cells were kept on ice at all times. […] A 25-gauge needle was used for tumor cell injections. Tumor cells were injected in a volume of 0.2 mL subcutaneously. A total of 100 mice were inoculated, of which 69 were used in the study.
# Seventeen days after inoculation, the mice were randomized into six groups. At this time, the majority of the tumors had reached a volume of 170-415 mm^3. Randomization of the mice was performed by using the formula RAND ( )*5000 from Microsoft Excel. […] Animals with tumors that were not within the 170-415 mm^3 range were excluded from the study.
# Furthermore, all animals in a group were taken off study when the mean tumor size in that group reached 1000 mm^3.
# as §4
# Differences in mean tumor size, tumor growth, and body weight change were compared across groups using analysis of variance (ANOVA) (SigmaStat 3.0).
# To calculate the time to progression, defined as the number of days for a tumor to reach 1000 mm^3, tumor growth vs time was individually plotted for each animal. The time to reach 1000 mm^3 estimated for each animal. […] The median and mean time for each treatment group to reach 1000 mm^3 was then calculated and groups were compared using ANOVA (SigmaStat 3.0).
# as §3
# HT1080 cells = test: Cell cycle analysis by propidium iodide flow cytometry in HT1080 cells (% cells in S-phase, Table 24); assay type: cell-based, human; settings: same tumor cells
# Description: Experimental Design. […] After treatment, cells were trypsinized, and stained with propidium iodide (PI) dye to measure DNA content of individual cells by flow cytometry. Output comprised histograms showing relative DNA content in 10,000 cells.
# While compounds which cause greater than 20% of the cells to accumulate in S-phase at 100 nM are considered active, a larger percentage of cells may be accumulated in S-phase at lower doses depending on the Compound, as shown in FIG. 12 for example.
# [5] = Bicalutamide, 25 mg/kg QD on Days 0, 1, 2, 3, 6, 7, 8, 9, and 10, L21 vehicle, QD, oral
# [6] = Docetaxel, 3 mg/kg IV on Days 1 and 8, Vehicle, QD, daily
smiles,measurement,setting,value
CC(O)(CS(=O)(=O)c1ccc(F)cc1)C(=O)Nc1ccc(C#N)c(C(F)(F)F)c1 (centres unmarked) [bicalutamide],Percent Inhibition Relative to Vehicle: Tumor Growth From Day 0 to 31,[1]; [5],9.3%^
same,Percent Inhibition Relative to Vehicle: Tumor Volume at Day 31,[1]; [5],7.2%^
same,mean±SD tumor size,"[1]; Day 30, Compound #10 10 mg/kg PO QD, bicalutamide 25 mg/kg QD",1059±321 mm3
same,Day of Maximal Loss (body weight),[2],20 days
same,Maximal Body Weight Loss From Initial Weight,[2],−5.3%
CC(=O)O[C@@]12CO[C@@H]1C[C@H](O)[C@@]1(C)C(=O)[C@H](O)C3=C(C)[C@@H](OC(=O)[C@H](O)[C@@H](NC(=O)OC(C)(C)C)c4ccccc4)C[C@@](O)([C@@H](OC(=O)c4ccccc4)[C@H]21)C3(C)C [docetaxel],Day of Maximal Loss (body weight),[3],(Day 13)
same,Maximal Body Weight Loss From Initial Weight,[3],−15%
same,mean±SD tumor size,"[4]; Day 31, Compound #10 10 mg/kg PO QD, docetaxel 3 mg/kg Days 1 and 8",1017±458 mm3
same,inhibition of tumor size or of the increase in tumor size versus vehicle,"[4]; Day 31, docetaxel 3 mg/kg Days 1 and 8",No statistically significant differences
same,Percent Inhibition Relative to Vehicle: Tumor Growth From Day 0 to 31,[4]; [6],17%
same,Percent Inhibition Relative to Vehicle: Tumor Volume at Day 31,[4]; [6],12%
same,Average Time on Therapy,"PC3 xenografts; 3 mg/kg IV Day 1, 8 and 10 mg/kg Day 29, vehicle 22",23 days
same,Median Time to Reach 1000 mm^3 (time to progression),"PC3 xenografts; 3 mg/kg IV Day 1, 8 and 10 mg/kg Day 29, vehicle 23",22 days
same,body weight change,"PC3 xenografts; PC3 tumor-bearing mice, Day 35 / Day 42",significantly more weight loss
same,median time to progression (tumor ≧1000 mm^3),PC3 xenografts; docetaxel IV 3 mg/kg on Day 1 and at 8 and 10 mg/kg on Day 29,22 days
same,tumors vs vehicle-treated mice,"PC3 xenografts; docetaxel IV, up to Day 35",not significantly different from the tumors in vehicle-treated mice
NC(Cn1ccc(=O)c(O)c1)C(=O)O (centres unmarked) [mimosine],effect of comparator on cell cycle (and VEGF production) (data not shown),HT1080 cells,does not delay or prolong the cell cycle or reduce VEGF production
